Here are results for three molecules from patent publication US10117874B2, “Combination of PI3K-inhibitors” (BAYER PHARMA AKTIENGESELLSCHAFT, priority 2013, dated 2018).

Data set [1] concerns MCF-7 breast cancer cells. The experiment in a line: WST-1 based proliferation assay, MCF-7. To be noted: MCF-7 (ER+, PIK3CA mutation); WST-1 absorbance 450 nm, days 1-5; compound A′ 50/500 nM, compound B 1600/800 Bq/ml. Format: cell-based, human. As for the experimental part: (§1) The effects of PI3K inhibitor compound A′ and compound B in MCF-7 and 4T1 breast cancer cells and PC-3 and LNCaP prostate cancer cells were investigated in vitro as single agent and in combination. The effects were studied by measuring cell proliferation and apoptosis. Compound B and the reference inhibitor doxorubicin were added at day 0. The PI3K inhibitors were added at day −1 (24 hours before addition of Alpharadin) and at day 4. The following two concentrations of the inhibitors and two concentrations of radium 223 in 4 replicates were tested:
(§2) The effects on cell proliferation were studied using a WST-1 based proliferation assay and the effects on apoptosis were studied in parallel plates by measuring caspase 3/7 activity. The measurements were performed at 4 different time points, days 1, 2, 3 and 5. Caspase activity was normalized to the cell number obtained with the WST-1 assay in parallel plates.
(§3) (A) The results are shown as Absorbance (450 nm) measured in the WST-1 proliferation assay (MEAN). (B) The results are shown as Caspase 3/7/WST-1 values (MEAN). […] (B) The effects of PI3K inhibitor compound A′ and Radium 223 on MCF-7 cell caspase 3/7 activity at days 2. The results are shown as Caspase 3/7/WST-1 values (MEAN+SEM).

Data set [2] relates to 4T1 breast cancer cells. The experiment in a line: WST-1 based proliferation assay, 4T1. It is filed as cell-based, mouse. Here is the method: as §1, §2
(§4) The results are shown as Absorbance (450 nm) measured in the WST-1 proliferation assay (MEAN).
Background: Tetrazolium assays rely on reduction of a dye to a coloured formazan, in cell work by metabolically active cells.

For data set [3], the system named is PC-3 prostate cancer cells. The experiment in a line: WST-1 based proliferation assay, PC-3. It is filed as cell-based, human. To be noted: PC3 (AR-negative, PTEN loss); WST-1 absorbance 450 nm, days 1-5; compound A′ 50/500 nM, compound B 1600/800 Bq/ml. As for the experimental part:
as §1, §2, §4

In data set [4] the test system is LNCaP prostate cancer cells. Put plainly: WST-1 based proliferation assay, LNCaP. It is filed as cell-based, human. Here is the method: as §1, §2
(A) The results are shown as Absorbance (450 nm) measured in the WST-1 proliferation assay (MEAN).

In data set [5] the test system is MCF-7 breast cancer cells. The experiment in a line: Apoptosis by caspase 3/7 activity, MCF-7. Conditions: day 2, caspase activity normalized to WST-1 cell number. It is filed as cell-based, human. As for the experimental part:
as §1, §2, §3

Data set [6] relates to CRPC (Castration Resistant Prostate Cancer) and bone metastases. To be noted: cited from earlier work.
For data set [7] the following is noted: single doses up to 250 kBq per kg body weight; cited from earlier work.
The conditions of data set [8]: phase 1 and 2 studies; patients with bone metastases; cited from earlier work.
Data set [9] concerns CRPC and bone metastases. To be noted: Phase 2 studies; cited from earlier work.
Where [10] appears, read: WST-1 absorbance 450 nm, days 1-5, compound A′ 100/1000 nM, compound B 1600/800 Bq/ml.
The mark [11] stands for this setting: ALSYMPCA trial, patients with CRPC and bone metastases.
Where [12] appears, read: LNCaP (AR-positive, PTEN loss), WST-1 absorbance 450 nm, days 1-5.

`[Cl][223Ra][Cl]` [compound B, radium-223 dichloride]: the “inhibition of tumor cell proliferation” value in [1] is “only slight inhibition of tumor cell proliferation”; in data set [2] (setting [10]), “only moderate inhibition of tumor cell proliferation”; in data set [2] (higher dose), “strong anti-proliferative effects”; in [3] it was “moderate inhibition of tumor cell proliferation”; in [4] (LNCaP, high dose (1600 Bq/mL)) it was “effective”. For the same molecule, in data set [5], the “apoptosis / tumor cell death induction (caspase 3/7 / WST-1)” value is “could not induce tumor cell death”. For the same molecule, in data set [6] (setting [11]), the “median survival longer than placebo” value is given as 2.8 months. Further, in [6] (setting [11]), the “reduction in risk of death compared with placebo” value is 30.5%. Also, the “time to first skeletal-related event” value in [6] (ALSYMPCA trial, versus placebo) is recorded as “significantly prolonged”. The median overall survival entry in data set [6] (Phase III clinical trials) is reported as “Significant increase in median overall survival”. The “cases of grade 3 neutropenia” value in data set [7] is recorded as “⅕”. Besides, the observed adverse reactions result in [7] is “diarrhea and reversible myelosuppression”. For the same molecule, the safety profile entry in data set [8] was “favorable safety profile, with minimal myelotoxicity”. Further, the “pain and disease-related biomarkers (bone ALP, PSA)” value in data set [9] was “reduces pain, improves disease-related biomarkers”.
Turning to `COc1c(OCCCN2CCOCC2)ccc2c1N=C(NC(=O)c1cnc(N)nc1)N1CCN=C21.Cl.Cl` [compound A′, 2-amino-N-[7-methoxy-8-(3-morpholin-4-ylpropoxy)-2,3-dihydroimidazo[1,2-c]quinazolin-5-yl]pyrimidine-5-carboxamide dihydrochloride], the “inhibition of tumor cell proliferation” value is “potent anti-proliferative activity” in [1], “only moderate inhibition of tumor cell proliferation” in [2] (lower (100 nM) dose), “better anti-proliferactive activity” in data set [3] and “strong anti-proliferative effects” in data set [4] (setting [12]). Moreover, the “apoptosis / tumor cell death induction (caspase 3/7 / WST-1)” value in [5] is recorded as “only at high dose can induce apoptosis”.
Regarding `COc1cccc2c1C(=O)c1c(O)c3c(c(O)c1C2=O)C[C@@](O)(C(=O)CO)C[C@@H]3O[C@H]1C[C@H](N)[C@H](O)[C@H](C)O1` [doxorubicin], the “inhibition of tumor cell proliferation” value in [1], in [2] (setting [10]), in [3] and in data set [4] (setting [12]) was “inhibited proliferation” each time.
